Laboratory results published in publication PMC12692291, “Development and In Vitro Evaluation of [^64Cu]Cu-NOTA-TP-PSMA, a Novel Radiotheranostic Agent Against Prostate Cancer” (International Journal of Molecular Sciences, 2025).

Columns and labels:
[1] = test system: HEK-293 cells; experiment: Cellular uptake and internalization in HEK-293 cells; format: cell-based, human
[2] = test system: LNCaP cells; experiment: Nuclear localization in LNCaP cells; format: cell-based
Procedure: To assess nuclear localization, LNCaP and HEK-293 cells were incubated with 1 MBq of [^64Cu]Cu-NOTA-TP-PSMA 1 for 24, 48, and 72 h. Nuclear extraction was performed following a previously established protocol. Following incubation, cells were lysed and fractionated using cytoskeletal buffer to isolate nuclear components. Nuclear and cytoplasmic radioactivity were measured using a HIDEX automatic gamma counter. Data were used to evaluate time-dependent nuclear accumulation of the tracer.

SMILES: O=C(O)CC[C@H](NC(=O)N[C@@H](CCCCNC(=O)[C@@H](Cc1ccc2ccccc2c1)NC(=O)C1CCC(CNC(=O)C(CCCCNC(=O)c2cc3[n+]4c(c2)-c2cccc[n+]2[Pt-2]4([Cl])[n+]2ccccc2-3)NC(=O)COCCOCCNC(=O)CN2CCN3CCN(CC2)CC(=O)[O][64Cu][O]C(=O)C3)CC1)C(=O)O)C(=O)O (stereo partly drawn) [[^64Cu]Cu-NOTA-TP-PSMA 1]
- Internalization ([1]; HEK-293, 24 h): 7.6 ± 1.7 % CPM/10^6 cells
- Uptake ([1]; HEK-293, 24 h): 8.30 ± 1.63 %CPM/10^6 cells
- Internalization HEK-293 ([1]; Table S2, 1 h): 4.46 ± 6.12 %ID/10⁶ cells
- Uptake HEK-293 ([1]; Table S2, 1 h): 3.15 ± 0.53 %ID/10⁶ cells
- Internalization HEK-293 ([1]; Table S2, 2 h): 3.34 ± 1.41 %ID/10⁶ cells
- Uptake HEK-293 ([1]; Table S2, 2 h): 3.78 ± 0.95 %ID/10⁶ cells
- Internalization HEK-293 ([1]; Table S2, 4 h): 3.26 ± 0.44 %ID/10⁶ cells
- Uptake HEK-293 ([1]; Table S2, 4 h): 5.27 ± 1.00 %ID/10⁶ cells
- Internalization HEK-293 ([1]; Table S2, 20 h): 6.12 ± 0.88 %ID/10⁶ cells
- Uptake HEK-293 ([1]; Table S2, 20 h): 8.00 ± 2.25 %ID/10⁶ cells
- Internalization HEK-293 ([1]; Table S2, 24 h): 7.65 ± 1.67 %ID/10⁶ cells
- Uptake HEK-293 ([1]; Table S2, 24 h): 8.30 ± 1.63 %ID/10⁶ cells
- nuclear uptake fold difference LNCaP vs HEK-293 ([2]; 24 h): 84 fold
- nuclear uptake in LNCaP cells ([2]; 24 h): ~ 7 % CPM/10^6 cells
- nuclear uptake fold difference LNCaP vs HEK-293 ([2]; 48 h): 36 fold
- nuclear uptake fold difference LNCaP vs HEK-293 ([2]; 72 h): 1.8 fold
- fold higher nuclear uptake than monomer 2 ([2]; LNCaP, 24 h): ~ 13 fold
- fold higher nuclear uptake than monomer 3 ([2]; LNCaP, 24 h): ~ 16 fold
- Nuclear uptake LNCaP ([2]; Table S4, 24 h): 6.96 ± 1.97 %ID/10⁶ cells
- Nuclear uptake LNCaP ([2]; Table S4, 48 h): 5.66 ± 2.09 %ID/10⁶ cells
- Nuclear uptake LNCaP ([2]; Table S4, 72 h): 1.53 ± 0.38 %ID/10⁶ cells
